Assay results as given in paper PMC10644391, “Targeted Reversible Covalent Modification of a Noncatalytic Lysine of the Krev Interaction Trapped 1 Protein Enables Site-Directed Screening for Protein–Protein Interaction Inhibitors” (ACS Pharmacology & Translational Science, 2023).
Where “and” joins values, the source holds several entries; their conditions need not be identical. Identical values can stand only once.

How the values were obtained:
HEG1-KRIT1 PPI [1] = biological target: T1, HEG1-KRIT1 PPI (Homo sapiens, UniProt O00522); assay: HEG1-KRIT1 PPI fluorescence polarization (FP) time-resolved assay; format: biochemical; conditions: means ± SD, n = 3; for IC50: fluorescence polarization assay after 4 h of incubation; for HEG1-KRIT1 PPI Assay kon / koff: global fit across six or more inhibitor concentrations; for Ki: global fit, unit in Figure 2E, read-out: HEG1-KRIT1 PPI Assay Ki (koff/kon)
T1 construct: a recombinant FERM domain (residues 417–736) of KRIT1; made in house; host or cells: E. coli
Procedure: To evaluate the binding kinetics of HNA inhibitors, a fluorescence polarization (FP) time-resolved assay that uses a recombinant FERM domain (residues 417–736) of KRIT1 and a fluorescence-tagged HEG1 cytoplasmic tail (Cy5-HEG1 7-mer peptide) was developed (Supporting Information). Using HNA as a test compound, the FP data, expressed as millipolarization (mP) units, were obtained every 10 min over the course of 4–7 h. […] Thus, for practical purposes, a 4-h incubation time was established as the standard assay time for non-kinetic IC50 evaluations.
Fluorescence Polarization Assay and Optimization
The KRIT1 FERM domain (residues 417-736) was cloned into plasmid and recombinantly expressed in E. coli as previously described,1 while the Cy5-HEG1 7- mer peptide bearing the Cy5 dye as fluorescent probe was prepared by and purchased from GenScript (New Jersey, US). HEPES- buffered saline (HBS) buffer was supplemented (0.01%) with detergent Triton X -100 to minimize protein adsorption to the microplate. The assay was setup in a 96-well plate plated with 80 nM KRIT1, 4 nM Cy5- HEG1 probe, and either non-tagged HEG1 peptide or HNA as inhibitor (in 5% DMSO). To account for background fluorescence that could interfere with the assay, background wells with only test compound and Cy5 -HEG1 probe (no KRIT1) were also plated. The FP data, expressed as millipolarization (mP) units, were obtained […]
course of 4-7 hours (for kinetic characterization) using a Tecan Spark® Multimode Microplate Reader. The background mP (no KRIT1) was subtracted from mP to account for background fluorescence. All assays were done in triplicates.
Several FP assay conditions were optimized. First, the HEG1 probe engagement of KRIT1 was examined and its interaction was determined to be rapid equilibrium, thus any observed time dependance in response when an inhibitor displaces the probe is the result of inhibitor exchange kinetics and not that of the probe. Next, the affinity of KRIT1 for the probe (Kd) was examined by following the change in polarization signal as a function of a matrix of five probe concentrations and four KRIT1 concentrations (Figure S1B ). A global fit of equation 3 to polarization responses of the inhibitor vs KRIT1 concentration […]
even after 7 hours of incubation. For practical purposes, we have chosen 4 hours as our standard incubation time since it appeared that most of the inhibition has been reached at this time point. The kinetic characterization of HNA as a HEG1- KRIT1 inhibitor will be discussed in greater detail in the kinetic section […]
values to those obtained from the flow cytometry assay. Finally, to assess the robustness of the FP assay, […]
a robust assay) representing an excellent assay with clear differences between positive and negative controls.2 Evaluation of HEG1-KRIT1 inhibitors prior to the optimization of the FP assay were done using flow cytometry, while subsequent compounds were evaluated using the FP assay. All subsequent assay plates included HNA as comparison and control.
Figure S1. Optimization of fluorescence polarization (FP) assay.
HEG1-KRIT1 inhibition. (B) Optimization of KRIT1 protein and Cy5 -HEG1 probe concentrations. Dose-response curve of HNA obtained via fluorescence polarization (C) and flow cytometry (D) assays show […]
All assays were tested in technical duplicates or triplicates in at least 2 different

[2] = pKa by potentiometric titration (Sirius T3); format: physicochemical; conditions: potentiometric titrations, means ± SD of three titrations
[3] = HEK293 cytotoxicity, resazurin cell viability assay; format: cell-based; conditions: human, HEK293 cells, means ± SD, n = 3
Procedure: Maintenance of HEK293 Cells. HEK293 cell lines (American Type Culture Collection (ATCC)) were cultured in Dulbecco's Modified Eagle Medium (DMEM, Invitrogen) supplemented with 10% heat-inactivated fetal bovine serum (FBS, Gibco) and penicillin-streptomycin (1%). Cells were kept at 37 °C and 5% CO2, and were passaged every 72 hours.
Resazurin Cell Viability Assay. The cytotoxicity in HEK293 cells were determined using a resazurin cell viability assay. Test compounds in DMSO were diluted to 100x desired final assay concentration (maximum concentration of 100 µM) in eight-point dose response. 1 µL of test compounds were plated in a 96-well clear bottom tissue culture microplate. 49 µL of cell culture media was added to each well. Cells were diluted to 4 x 10^5 cells/mL, and 50 µL of this cell suspension was seeded to each well for a total of 2 x 10^4 cells/well. The assay plate was kept at 37 °C and 5% CO 2 for either 4 or 48 hours. At the end of the incubation time, 20 µL of 0.5 mM resazurin sodium salt (Alfa Aesar) solution in PBS was added to each well. The assay plates were incubated further at 37 °C for 2 hours. Fluorescence was measured at 531 nm and 595 nm excitation and emission wavelengths, respectively, using a 2104 EnVision® multilabel plate reader. CC50 values were obtained using sigmoidal curved generated with Prism GraphPad (San Diego, CA). SD values are reported as the standard deviation of the CC50 values of 3 biological replicates. All

KLF2 [4] = assay: KLF2 gene expression in HUVECs (RT-qPCR); format: cell-based, Human; conditions: HUVEC, 4-h incubation, relative to inactive control (2-hydroxy-1-naphthoic acid), 10-50 µM
Procedure: (§1) Finally, to confirm target engagement in cell-based conditions, selected HNA derivatives (i.e., 2, 3, and 5) were tested in a functional assay that specifically looks at the downstream effects of inhibiting the interaction between HEG1 and KRIT1, using qPCR. […] Here, the ability of compound 2 and HNA derivatives 3 and 5 to upregulate the same transcription factors in HUVEC after 4 h was measured.
(§2) PCR experiments in endothelial cells
(§3) Cell Culture. Human umbilical vein endothelial cells (HUVECs, Lonza) from passages 5 to 7 were grown on fibronectin‐coated 6-well plates (Corning) in complete EGM‐2 media (Lonza). HNA compounds 2, 3 and 5 were used from stocks of 10 mM in DMSO, which were placed on a rotating block at room temperature for 30 min before being diluted for use in cell culture. Compounds were used at the concentrations indicated (10-50µM) in HUVEC medium and added to cell culture wells for 4 hours. Control cells were treated with the same concentration of either DMSO (vehicle) or the non-active compound V for the same duration. Cells were maintained in a humidified incubator at 37°C and 5% CO2.
(§4) RT-qPCR. HUVECs (Lonza) using TRIzol reagent (Thermo Fisher Scientific) and the Quick-RNA MiniPrep Kit (Zymo Research) according to the manufacturer’s instructions. cDNA was transcribed from a total of 1 µg RNA per sample using qScript™ cDNA SuperMix (QuantaBio) according to the manufacturer’s protocol. KAPA SYBR FAST qPCR master mix (Roche) was used on a CFX Connect Real-Time PCR Detection System (BioRad) to determine the relative levels of human gene trascripts. The following primer sets were used: KLF2 (forward) AGACCACGATCCTCCTTGA and (reverse) […]
(§5) […]; KLF4, (forward) […] and (reverse)
(§6) ; and GAPDH (forward) […] and
(§7) (reverse) […] used as internal control. The 2−ΔΔCT method was used to analyze relative changes between vehicle control and test compounds for each data set.

KLF4 [5] = assay: KLF4 gene expression in HUVECs (RT-qPCR); format: cell-based, Human; conditions: HUVEC, 4-h incubation, relative to inactive control (2-hydroxy-1-naphthoic acid), 10-50 µM
Procedure: as §1, §2, §3, §4, §5, §6, §7

HEG1-KRIT1 PPI [6] = conditions: prior SAR studies; read-out: HEG1-KRIT1 PPI inhibition IC50; cited from earlier work
KLF2 [7] = tested on: KLF2; parameters: method as in PMID 33977234; conditions: HUVECs, 24 h of incubation; cited from earlier work
KLF4 [8] = tested on: KLF4; parameters: method as in PMID 33977234; conditions: HUVECs, 24 h of incubation; cited from earlier work

T1 sequence (O00522 417-736): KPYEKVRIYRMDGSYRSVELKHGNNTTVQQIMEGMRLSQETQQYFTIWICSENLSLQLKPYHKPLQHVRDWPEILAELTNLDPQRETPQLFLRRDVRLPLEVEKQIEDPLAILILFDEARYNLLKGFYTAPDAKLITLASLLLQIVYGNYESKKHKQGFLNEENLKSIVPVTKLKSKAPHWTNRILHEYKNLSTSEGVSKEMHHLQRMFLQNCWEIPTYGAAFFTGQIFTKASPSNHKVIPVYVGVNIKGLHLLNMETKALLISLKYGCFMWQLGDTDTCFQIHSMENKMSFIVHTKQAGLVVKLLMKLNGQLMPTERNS

| Structure (SMILES) | IC50 (HEG1-KRIT1 PPI [1]) [nM] | HEG1-KRIT1 PPI Assay kon (HEG1-KRIT1 PPI [1]) | koff (HEG1-KRIT1 PPI [1]) [s⁻¹] | Ki (HEG1-KRIT1 PPI [1]) [nM] | pKa [2] | CC50 at 48 h [3] [nM] | KLF2 mRNA expression (KLF2 [4]) | KLF4 mRNA expression (KLF4 [5]) | IC50 (HEG1-KRIT1 PPI [6]) [nM] | KLF2 expression (KLF2 [7]) | KLF4 expression (KLF4 [8]) |
| --- | --- | --- | --- | --- | --- | --- | --- | --- | --- | --- | --- |
| O=Cc1c(O)ccc2cc(-c3ccsc3)ccc12 [Compound 15] | 1180 ± 390 | 60.3 ± 7.5 M⁻¹ s⁻¹ | 5e-05 | 830 ± 200 | 7.75 ± 0.08 | 38400 ± 6100 | – | – | – | – | – |
| O=Cc1c(O)ccc2cc(-c3c[nH]nn3)ccc12 [Compound 14] | 12000 ± 1090 | 4.58 M⁻¹ s⁻¹ and 4.58 ± 0.444 M⁻¹ s⁻¹ | 1.99e-05 | 4350 ± 1770 | 7.38 ± 0.12 | > 100000 | – | – | – | – | – |
| O=Cc1ccccc1O [salicylaldehyde, reference compound] | – | – | – | – | – | – | – | – | > 500000 | – | – |
| O=Cc1c(O)ccc2cc(OC(F)F)ccc12 [Compound 10] | 2210 ± 680 | 29.7 ± 2.5 M⁻¹ s⁻¹ | 3.08e-05 | 1030 ± 250 | 6.95 ± 0.12 | > 100000 | – | – | – | – | – |
| COc1ccc2c(C=O)c(O)ccc2c1 [Compound 2, 2-hydroxy-6-methoxy-1-naphthaldehyde] | 3960 ± 840 | 14 M⁻¹ s⁻¹ and 14 ± 0.83 M⁻¹ s⁻¹ | 1.54e-05 | 1100 ± 320 | 7.42 ± 0.03 | > 100000 | increased KLF2 and KLF4 expression without reaching statistical significance | increased KLF2 and KLF4 expression without reaching statistical significance | – | upregulation | upregulation |
| C=CCc1ccc2c(C=O)c(O)ccc2c1 [Compound 7] | 1220 ± 430 | 50.8 ± 5 M⁻¹ s⁻¹ | 3.19e-05 | 630 ± 160 | 7.17 ± 0.09 | 33900 ± 5400 | – | – | – | – | – |
| C=CCOc1ccc2c(C=O)c(O)ccc2c1 [Compound 9] | 2750 ± 190 | 24.6 ± 1.81 M⁻¹ s⁻¹ | 2.29e-05 | 930 ± 240 | 7.34 ± 0.12 | 59200 ± 12900 | – | – | – | – | – |
| CN(C)c1ccc2c(C=O)c(O)ccc2c1 [Compound 11] | 12100 ± 4610 | 9.64 M⁻¹ s⁻¹ and 9.64 ± 2.08 M⁻¹ s⁻¹ | 0.00011 | 11400 ± 4080 | – | > 100000 | – | – | – | – | – |
| O=Cc1c(O)ccc2cc(Cl)ccc12 [Compound 8] | 1830 ± 820 | 35.6 ± 5 M⁻¹ s⁻¹ | 2.97e-05 | 840 ± 330 | 7.3 ± 0.06 | ~100000 | – | – | – | – | – |
| CC#Cc1ccc2c(C=O)c(O)ccc2c1 [Compound 12] | 1420 ± 320 | 43.1 ± 5.83 M⁻¹ s⁻¹ | 4.36e-05 | 1010 ± 290 | 7.02 ± 0.08 | ~100000 | – | – | – | – | – |

More lines, in order of falling IC50 (HEG1-KRIT1 PPI [1]), values ahead:

| IC50 (HEG1-KRIT1 PPI [1]) [nM] | HEG1-KRIT1 PPI Assay kon (HEG1-KRIT1 PPI [1]) | koff (HEG1-KRIT1 PPI [1]) [s⁻¹] | Ki (HEG1-KRIT1 PPI [1]) [nM] | pKa [2] | Structure (SMILES) | CC50 at 48 h [3] [nM] | KLF2 mRNA expression (KLF2 [4]) | KLF4 mRNA expression (KLF4 [5]) | IC50 (HEG1-KRIT1 PPI [6]) [nM] | KLF2 expression (KLF2 [7]) | KLF4 expression (KLF4 [8]) |
| --- | --- | --- | --- | --- | --- | --- | --- | --- | --- | --- | --- |
| 940 ± 120 | 52.8 ± 9.17 M⁻¹ s⁻¹ | 4.97e-05 | 940 ± 320 | 7.5 ± 0.02 | O=Cc1c(O)ccc2ccc(-c3ccco3)cc12 [Compound 6] | 41200 ± 6700 | – | – | – | – | – |
| 790 ± 240 | 112 ± 23.9 M⁻¹ s⁻¹ | 7.28e-05 | 650 ± 240 | 6.76 ± 0.1 | O=Cc1c(O)ccc2cc(-c3ccccc3)ccc12 [Compound 13] | 43500 ± 9400 | – | – | – | – | – |
| 690 ± 110 | 108 ± 20.8 M⁻¹ s⁻¹ | 8.81e-05 | 820 ± 250 | 8.08 ± 0.08 | O=Cc1c(O)ccc2cc(-c3ccco3)ccc12 [Compound 5] | 37100 ± 5200 | significant elevations | significant elevations | – | – | – |
| 650 ± 120 | 179 ± 26.1 M⁻¹ s⁻¹ | 0.000118 | 660 ± 170 | 6.81 ± 0.05 | C#Cc1ccc2c(C=O)c(O)ccc2c1 [Compound 3] | > 100000 | significant elevations | significant elevations | – | – | – |
| 470 ± 110 | 200 ± 30 M⁻¹ s⁻¹ | 0.000114 | 570 ± 140 | – | O=Cc1c(O)ccc2cc(-c3cccs3)ccc12 [Compound 4] | 33900 ± 700 | – | – | – | – | – |
| 240 ± 90 | 232 ± 40.8 M⁻¹ s⁻¹ | 7.28e-05 | 310 ± 90 | – | O=Cc1c(O)ccc2ccc(-c3cccs3)cc12 [Compound 16] | 31400 ± 4200 | – | – | – | – | – |
